Common to all, as to format: cell-based
One assay deals with Mtb. Praha 1. Nature of the assay: microbe, parasite or virus in culture. The conditions noted are these: Mycobacterium tuberculosis, read-out: MIC Mtb. Praha 1.
Assay [1] relates to Enterococcus sp. J 14365/08. Kind of assay: Antibacterial microdilution broth method. Conditions: read-out: MIC/IC90 Enterococcus sp. J 14365/08. The procedure, abridged: (§1)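 MIC values reflect a 90% or greater drop in growth relative to control, judged by eye and by absorbance at 540 nm. Testing used a modified M07-A07 broth microdilution in pH 7.4 Mueller-Hinton medium over 500–0.49 […] final compound, with 24 h and 48 h incubation at 35 °C.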

Assay [2] has as its system Escherichia coli CCM 4517. Kind of assay: Antibacterial microdilution broth method. Conditions: read-out: MIC/IC90 E. coli CCM 4517. A digest of the protocol:
as §1

For assay [3], the system named is Staphylococcus aureus CCM 4516/08. Kind of assay: Antibacterial microdilution broth method. Conditions: read-out: MIC/IC90 S. aureus CCM 4516/08. The procedure, abridged:
as §1

In assay [4] the test system is Staphylococcus epidermidis H 6966/08. Nature of the assay: Antibacterial microdilution broth method. The conditions noted are these: read-out: MIC/IC90 S. epidermidis H 6966/08. A digest of the protocol: as §1
Assay [5] deals with methicillin-resistant Staphylococcus aureus H 5996/08 (MRSA). Kind of assay: Antibacterial microdilution broth method. The conditions noted are these: read-out: MIC/IC90 MRSA H 5996/08. A digest of the protocol: as §1
Assay [6] has as its system Gram-positive cocci including MRSA. Nature of the assay: Antibacterial microdilution, summary for Gram-positive cocci. The conditions noted are these: Staphylococcus aureus, read-out: MICs against Gram-positive cocci. The protocol:
The in vitro antibacterial activity was assayed against eight Gram-positive and Gram-negative strains: Staphylococcus aureus CCM 4516/08, methicillin-resistant Staphylococcus aureus H 5996/08 (MRSA), Staphylococcus epidermidis H 6966/08, Enterococcus sp. J 14365/08; Escherichia coli CCM 4517, Klebsiella pneumoniae D 11750/08, ESBL-positive Klebsiella pneumoniae J 14368/08, and Pseudomonas aeruginosa CCM 1961.
The microdilution broth method modified according to standard M07-A07 in Mueller-Hinton broth (HiMedia Laboratories, Mumbai, India) adjusted to pH 7.4 (±0.2) was used. The tested compounds were dissolved in DMSO to the final concentrations ranging from […]. Benzylpenicillin (penicillin G) was used as a comparative drug. Bacterial inoculum in sterile water was prepared to match 0.5 McFarland scale ([…]). The minimum inhibitory concentrations were assayed as 90% (IC90) or higher reduction of growth when compared to the control. The determination of results was performed visually and spectrophotometrically (at 540 nm). The values of MICs were determined after 24 and 48 h of incubation in the darkness at 35 °C (±0.1) in a humid atmosphere.

Assay [7] has as its system Mycobacterium tuberculosis, M. avium and M. kansasii. Kind of assay: Antimycobacterial MIC, summary over all mycobacterial strains. Conditions: range over all strains and times; read-out: MICs against all mycobacterial strains.

Values after ≈ are worked out from the molar mass of the structure shown. Where two headings read alike, the source gives them in different places.

`O=C(Oc1cc(Cl)ccc1C(=O)Nc1ccc(Br)cc1)c1ccc(C(F)(F)F)cc1` [1j]: the MIC with Mtb. Praha 1 (336 h) was 2 µM (≈ 0.997 µg/mL); with Mtb. Praha 1 (504 h), 2 µM (≈ 0.997 µg/mL); in assay [1] (SP.J14365/08, 24 h) it was 1.95 µM (≈ 0.972 µg/mL); in assay [1] (SP.J14365/08, 48 h), 7.81 µM (≈ 3.89 µg/mL); in assay [2] (CCM4517, 24 h), 250 µM (≈ 125 µg/mL); in assay [2] (CCM4517, 48 h) it was greater than 250 µM. Also, the MIC in assay [3] (CCM4516, 24 h) is 0.49 µM (≈ 0.244 µg/mL); in assay [3] (CCM4516, 48 h) it was 0.98 µM (≈ 0.489 µg/mL); in assay [4] (H6966/08, 24 h), 0.49 µM (≈ 0.244 µg/mL); in assay [4] (H6966/08, 48 h), 0.98 µM (≈ 0.489 µg/mL); in assay [5] (24 h) it was 0.49 µM (≈ 0.244 µg/mL); in assay [5] (48 h), 0.98 µM (≈ 0.489 µg/mL). Also, in assay [6], the MIC was less than 1 µM.

Turning to `O=C(Oc1ccc(Cl)cc1C(=O)Nc1ccc(Cl)c(Cl)c1)c1ccc(C(F)(F)F)cc1` [1e], the MIC is 1 µM (≈ 0.489 µg/mL) in the assay on Mtb. Praha 1 (336 h); 2 µM (≈ 0.977 µg/mL) in the assay on Mtb. Praha 1 (504 h); 0.49 µM (≈ 0.239 µg/mL) in assay [1] (SP.J14365/08, 24 h); 3.9 µM (≈ 1.91 µg/mL) in assay [1] (SP.J14365/08, 48 h); greater than 500 µM in assay [2] (CCM4517, 24 h); greater than 500 µM in assay [2] (CCM4517, 48 h). For the same compound, the MIC in assay [3] (CCM4516, 24 h) was 0.49 µM (≈ 0.239 µg/mL); in assay [3] (CCM4516, 48 h) it was 0.98 µM (≈ 0.479 µg/mL); in assay [4] (H6966/08, 24 h), 0.49 µM (≈ 0.239 µg/mL); in assay [4] (H6966/08, 48 h), 0.98 µM (≈ 0.479 µg/mL); in assay [5] (24 h), 0.49 µM (≈ 0.239 µg/mL); in assay [5] (48 h) it was 0.98 µM (≈ 0.479 µg/mL). For the same compound, in assay [6], the MIC was less than 1 µM.

Turning to `O=C(Oc1ccc(Cl)cc1C(=O)Nc1ccc(C(F)(F)F)cc1)c1ccc(C(F)(F)F)cc1` [1o, 4-chloro-2-[4-(trifluoromethyl)phenylcarbamoyl]phenyl 4-(trifluoromethyl)benzoate], the MIC with Mtb. Praha 1 (336 h) was 0.5 µM (≈ 0.244 µg/mL); in the assay on Mtb. Praha 1 (504 h), 0.5 µM (≈ 0.244 µg/mL); in assay [1] (SP.J14365/08, 24 h), 7.81 µM (≈ 3.81 µg/mL); in assay [1] (SP.J14365/08, 48 h), 62.5 µM (≈ 30.5 µg/mL); in assay [2] (CCM4517, 24 h), greater than 125 µM; in assay [2] (CCM4517, 48 h) it was greater than 125 µM. The MIC in assay [3] (CCM4516, 24 h) was found to be 3.9 µM (≈ 1.9 µg/mL); in assay [3] (CCM4516, 48 h), 7.81 µM (≈ 3.81 µg/mL); in assay [4] (H6966/08, 24 h), 3.9 µM (≈ 1.9 µg/mL); in assay [4] (H6966/08, 48 h), 7.81 µM (≈ 3.81 µg/mL); in assay [5] (24 h), 3.9 µM (≈ 1.9 µg/mL); in assay [5] (48 h), 7.81 µM (≈ 3.81 µg/mL). Also, the MIC in assay [7] is 1 to 4 µM (≈ 0.488 to 1.95 µg/mL).

Values taken from PMC6270420, “Antibacterial Activity of Salicylanilide 4-(Trifluoromethyl)benzoates” (Molecules, 2013).
